# Legend:
# [1] = biological target: T1, GluN1/2A (UniProt P35439+Q12879); assay: TEVC electrophysiology dose–response in xenopus oocytes; type: cell-based; details: 100 µM CNS4, −60 mV, average ± SEM
# From the text: (§1) NMDAR constructs: cDNA encoding the NMDAR1a subunit (GluN1a) was obtained from Dr. Nakanishi. cDNA encoding the GluN2B (pci_sepGluN2B) was developed initially in the Malinow lab[36] and purchased from Addgene (cat# 23998). cDNA encoding the GluN2C and GluN2D were purchased from GenScript. Mutated GluN1, 2A and 2B cDNA constructs capable of assembling as GluN1/2A/2B triheteromeric (1/2AB) receptors[37] were obtained from Dr. Paoletti (Laboratoire de Neurobiologie, CNRS). […] Plasmids were linearized with NotI (GluN1a) or Avrll (GluN2B), or BstB1 (GluN2C and GluN2D) and transcribed in vitro with T7 (GluN1a, GluN1/2A, GluN2B, GluN2C, & GluN2D) RNA polymerase using the mMessage mMachine transcription kits (Invitrogen by Thermo Fisher Scientific).
# (§2) Stage IV frog oocytes were obtained from Xenopus‐I. NMDAR subunit cRNAs were suspended in nuclease‐free sterile water. GluN1A, GluN2B, GluN2C, GluN2D, and GluN1/2A/2B cRNAs were mixed in a ratio of 1:1–3. 50 nl of the final cRNA mixture was microinjected (40–70 ng total) into the oocyte cytoplasm. Oocytes were incubated in ND‐96 solution at 18^◦C prior to electrophysiological recordings (1–3 days).
# Electrophysiological responses were measured using a standard two‐microelectrode voltage‐clamp workstation [Warner Instruments (Hamden, Connecticut) model OC‐725C] designed to provide a fast clamp of large cells. The recording buffer contained 116 mM NaCl, 2 mM KCl, 0.3 mM BaCl2, and 5 mM HEPES, pH 7.4. Response magnitude was determined in xenopus oocytes expressing different NMDAR subunits (GluN1/2A, 1/2B, 1/2C, 1/2D, and 1/2A/2B) by the steady plateau response elicited by bath application of different agonist concentrations. […] Response amplitudes for functional NMDARs were generally between 0.1 and 2 μA. […] Dose–response relationships were fit to an appropriate curve‐fitting equation using GraphPad Prism‐7. Nonlinear regression was used to calculate EC50 and/or percentage maximal response. Curve fittings were done using the following equations as performed in the previous studies[34], [39]: Y = 100/(1 + 10^(LogEC50‐X)) or Y = Bottom + (Top − Bottom)/(1+10^(LogEC50‐X)). Statistical significance was determined at the overall alpha level .05, using appropriate statistical methods as described in each figure captions.
# [2] = system: cultured rat brain cortical neurons; assay: Dynamic calcium assay (Fluo‐8); type: cell-based
# Protocol: All animal experimental procedures and housing have been approved by the Institutional Animal Care and Use Committee (IACUC) protocol #18‐015 of Virginia Tech. Embryonic day 18 (E18) rat brain tissue samples were obtained from adult pregnant SD rats. Rat brain primary cortical, striatal, and cerebellar neurons were cultured on poly‐d‐lysine coated 96‐well plates for 14 days in vitro (DIV14) before using for the experiments. Primary rat neuron culture was performed as previously published.[44] Briefly, each well of a 96 well plate was loaded with 50 000 cells and grown in 200 µl neurobasal media supplemented with B27, glutamax, penicillin, streptomycin. One hundred microliters of media was replaced with fresh media once in 4 days. Eight to thirteen fetus were obtained from each pregnant rat. Brain tissue from these fetus were pooled to obtain the neurons. Cortical, striatal, and cerebellar neuron assays were carried out at different time points.
# Dynamic calcium assay was carried out, using Fluo‐8 no‐wash kit (abcam, ab112129), as per the manufacturer's instructions with minor modifications to fit with experimental necessities. On DIV14, all 200 μl of media was removed and replaced it with 100 μl of HBSS and 100 μl of Fluo‐8 dye loading solution. The plates were incubated at 37°C for 30 min and at room temperature for 30 min. […] Costar 96‐well clear bottom black side plates were read from the bottom, nine times, with 60 s intervals between each read. Temperature was set at 37°C and reading speed was 100 ms.
# [3] = biological target: GluN1/2A/2B triheteromeric (1/2AB) receptors (Rattus norvegicus, UniProt P35439+Q00959+Q01097); assay: TEVC electrophysiology dose–response in xenopus oocytes; details: 100 µM CNS4, −60 mV, average ± SEM
# Chain of GluN1/2A/2B triheteromeric (1/2AB) receptors (Q01097 27-1482, other chains not shown): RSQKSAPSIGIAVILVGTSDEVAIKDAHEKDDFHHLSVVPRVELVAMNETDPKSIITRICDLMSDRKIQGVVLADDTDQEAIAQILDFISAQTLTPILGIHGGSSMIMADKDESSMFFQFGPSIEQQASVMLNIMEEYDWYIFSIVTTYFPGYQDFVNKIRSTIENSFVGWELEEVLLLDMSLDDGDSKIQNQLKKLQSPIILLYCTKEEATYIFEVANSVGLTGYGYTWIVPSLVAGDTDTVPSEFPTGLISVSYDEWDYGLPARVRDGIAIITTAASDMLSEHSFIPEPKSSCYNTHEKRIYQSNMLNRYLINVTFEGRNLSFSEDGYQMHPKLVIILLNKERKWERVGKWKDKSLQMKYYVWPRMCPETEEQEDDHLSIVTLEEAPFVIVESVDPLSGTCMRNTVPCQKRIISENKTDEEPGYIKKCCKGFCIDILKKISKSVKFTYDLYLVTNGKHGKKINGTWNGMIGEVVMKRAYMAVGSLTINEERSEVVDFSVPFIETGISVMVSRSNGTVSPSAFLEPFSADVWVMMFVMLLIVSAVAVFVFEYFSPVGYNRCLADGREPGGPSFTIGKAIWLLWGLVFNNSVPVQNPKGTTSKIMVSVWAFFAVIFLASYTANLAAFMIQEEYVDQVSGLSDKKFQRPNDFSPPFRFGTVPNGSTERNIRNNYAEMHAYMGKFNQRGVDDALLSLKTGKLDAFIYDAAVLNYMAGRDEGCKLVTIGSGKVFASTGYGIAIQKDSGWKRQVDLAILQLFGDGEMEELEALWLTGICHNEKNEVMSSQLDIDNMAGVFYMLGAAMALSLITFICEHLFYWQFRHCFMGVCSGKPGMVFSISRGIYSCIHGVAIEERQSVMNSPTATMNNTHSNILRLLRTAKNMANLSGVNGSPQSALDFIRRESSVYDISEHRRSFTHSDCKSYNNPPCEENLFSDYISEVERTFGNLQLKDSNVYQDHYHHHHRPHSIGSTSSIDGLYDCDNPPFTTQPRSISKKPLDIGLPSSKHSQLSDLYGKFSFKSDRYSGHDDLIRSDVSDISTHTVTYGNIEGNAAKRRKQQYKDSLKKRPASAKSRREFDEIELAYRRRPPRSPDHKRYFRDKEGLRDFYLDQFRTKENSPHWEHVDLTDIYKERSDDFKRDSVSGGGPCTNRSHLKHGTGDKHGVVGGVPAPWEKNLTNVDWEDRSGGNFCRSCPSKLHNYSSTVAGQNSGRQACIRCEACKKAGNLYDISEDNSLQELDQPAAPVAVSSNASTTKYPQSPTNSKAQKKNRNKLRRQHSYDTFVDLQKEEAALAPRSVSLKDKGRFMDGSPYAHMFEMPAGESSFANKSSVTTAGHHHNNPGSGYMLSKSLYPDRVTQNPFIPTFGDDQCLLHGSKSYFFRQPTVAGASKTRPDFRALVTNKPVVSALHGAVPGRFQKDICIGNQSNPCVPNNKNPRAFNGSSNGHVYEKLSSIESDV
# Chain of GluN1/2A/2B triheteromeric (1/2AB) receptors (Q00959 23-1464, other chains not shown): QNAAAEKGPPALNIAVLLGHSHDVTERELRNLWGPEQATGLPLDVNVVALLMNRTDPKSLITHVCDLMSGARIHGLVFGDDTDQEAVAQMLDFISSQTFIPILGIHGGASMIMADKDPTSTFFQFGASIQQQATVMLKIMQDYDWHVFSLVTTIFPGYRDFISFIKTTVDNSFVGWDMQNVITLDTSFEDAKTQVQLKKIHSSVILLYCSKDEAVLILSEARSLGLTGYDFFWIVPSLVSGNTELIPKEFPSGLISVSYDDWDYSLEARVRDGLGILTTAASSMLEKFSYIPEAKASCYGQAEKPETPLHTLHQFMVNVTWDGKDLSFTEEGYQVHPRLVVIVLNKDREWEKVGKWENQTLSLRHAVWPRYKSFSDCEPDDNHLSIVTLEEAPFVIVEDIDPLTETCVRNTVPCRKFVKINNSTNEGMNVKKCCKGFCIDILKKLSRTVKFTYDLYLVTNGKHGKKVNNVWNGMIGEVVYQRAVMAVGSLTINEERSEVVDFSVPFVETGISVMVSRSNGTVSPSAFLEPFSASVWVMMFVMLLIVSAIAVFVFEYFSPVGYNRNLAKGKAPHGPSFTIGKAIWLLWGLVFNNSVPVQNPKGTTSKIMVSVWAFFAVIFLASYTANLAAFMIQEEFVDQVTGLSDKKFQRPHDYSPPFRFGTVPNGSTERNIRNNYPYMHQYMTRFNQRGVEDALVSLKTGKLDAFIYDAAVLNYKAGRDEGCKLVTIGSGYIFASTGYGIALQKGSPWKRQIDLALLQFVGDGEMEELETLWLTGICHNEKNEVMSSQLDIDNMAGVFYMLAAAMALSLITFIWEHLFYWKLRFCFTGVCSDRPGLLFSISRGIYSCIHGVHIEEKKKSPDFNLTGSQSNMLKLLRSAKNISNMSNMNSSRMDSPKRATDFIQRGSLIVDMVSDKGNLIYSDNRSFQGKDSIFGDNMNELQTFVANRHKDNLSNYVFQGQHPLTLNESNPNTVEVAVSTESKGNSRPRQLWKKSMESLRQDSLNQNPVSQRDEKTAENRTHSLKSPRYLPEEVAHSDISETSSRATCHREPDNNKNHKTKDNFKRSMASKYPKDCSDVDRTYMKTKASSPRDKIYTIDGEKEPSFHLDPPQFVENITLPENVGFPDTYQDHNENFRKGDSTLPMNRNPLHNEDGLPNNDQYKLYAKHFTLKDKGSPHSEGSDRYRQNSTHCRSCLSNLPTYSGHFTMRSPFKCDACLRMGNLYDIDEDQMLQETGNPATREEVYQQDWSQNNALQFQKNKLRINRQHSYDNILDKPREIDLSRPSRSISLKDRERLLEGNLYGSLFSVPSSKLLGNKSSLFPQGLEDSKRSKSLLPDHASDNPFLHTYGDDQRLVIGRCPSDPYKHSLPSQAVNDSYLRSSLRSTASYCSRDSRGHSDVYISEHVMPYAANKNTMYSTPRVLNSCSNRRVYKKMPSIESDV
# From the text: as §1, §2
# Electrophysiological responses were measured using a standard two‐microelectrode voltage‐clamp workstation [Warner Instruments (Hamden, Connecticut) model OC‐725C] designed to provide a fast clamp of large cells. The recording buffer contained 116 mM NaCl, 2 mM KCl, 0.3 mM BaCl2, and 5 mM HEPES, pH 7.4. Response magnitude was determined in xenopus oocytes expressing different NMDAR subunits (GluN1/2A, 1/2B, 1/2C, 1/2D, and 1/2A/2B) by the steady plateau response elicited by bath application of different agonist concentrations. […] Response amplitudes for functional NMDARs were generally between 0.1 and 2 μA. […] Dose–response relationships were fit to an appropriate curve‐fitting equation using GraphPad Prism‐7. Nonlinear regression was used to calculate EC50 and/or percentage maximal response. […] Statistical significance was determined at the overall alpha level .05, using appropriate statistical methods as described in each figure captions.
# [4] = biological target: T1, GluN1/2A; assay: Whole‐cell patch‐clamp electrophysiology in HEK293T cells; type: cell-based; parameters: expressed in transfected cells; host or cells: HEK-293 / HEK293T cells
# Protocol: Whole‐cell patch‐clamp electrophysiology studies were carried out in the HEK‐293 cells, expressing recombinant NMDARs that lack native functional NMDARs.[40], [41], [42] Equal quantity of (1 µg) cDNA for GluN1a, GluN2 (A or B or C or D) subunits were co‐transfected 24–48 h before patch‐clamp electrophysiology assay. […] Cells were carefully washed before performing experiments and were used for the electrophysiology experiments after 24–48 h incubation at 37°C with 5%CO2. The whole‐cell patch‐clamp electrophysiology assay was performed using semi‐automated patch‐clamp equipment, Port‐a‐Patch (Nanion Technologies GmbH). Following are the constituents of various solutions used for patch‐clamp electrophysiology: internal solution [(mM) NaCl 10, EGTA 20, CsF 110, HEPES 10], Mg‐free external (recording) solution [(mM) NaCl 140, KCl 4, CaCl2 2, HEPES 10, D‐GlucoseMonohydrate 5], and Mg‐free seal enhancer solution [(mM) NaCl 80, KCl 3, CaCl2 35, HEPES 10]. Nanion NPC chips with […] resistance were used for the HEK‐293 cell recordings.
# [5] = 0.3 µM glutamate + 100 µM glycine
# [6] = 100 µM glutamate + 100 µM glycine
# [7] = 300 µM glutamate + 100 µM glycine
# T1 sequence (Q12879 23-1464, other chains not shown): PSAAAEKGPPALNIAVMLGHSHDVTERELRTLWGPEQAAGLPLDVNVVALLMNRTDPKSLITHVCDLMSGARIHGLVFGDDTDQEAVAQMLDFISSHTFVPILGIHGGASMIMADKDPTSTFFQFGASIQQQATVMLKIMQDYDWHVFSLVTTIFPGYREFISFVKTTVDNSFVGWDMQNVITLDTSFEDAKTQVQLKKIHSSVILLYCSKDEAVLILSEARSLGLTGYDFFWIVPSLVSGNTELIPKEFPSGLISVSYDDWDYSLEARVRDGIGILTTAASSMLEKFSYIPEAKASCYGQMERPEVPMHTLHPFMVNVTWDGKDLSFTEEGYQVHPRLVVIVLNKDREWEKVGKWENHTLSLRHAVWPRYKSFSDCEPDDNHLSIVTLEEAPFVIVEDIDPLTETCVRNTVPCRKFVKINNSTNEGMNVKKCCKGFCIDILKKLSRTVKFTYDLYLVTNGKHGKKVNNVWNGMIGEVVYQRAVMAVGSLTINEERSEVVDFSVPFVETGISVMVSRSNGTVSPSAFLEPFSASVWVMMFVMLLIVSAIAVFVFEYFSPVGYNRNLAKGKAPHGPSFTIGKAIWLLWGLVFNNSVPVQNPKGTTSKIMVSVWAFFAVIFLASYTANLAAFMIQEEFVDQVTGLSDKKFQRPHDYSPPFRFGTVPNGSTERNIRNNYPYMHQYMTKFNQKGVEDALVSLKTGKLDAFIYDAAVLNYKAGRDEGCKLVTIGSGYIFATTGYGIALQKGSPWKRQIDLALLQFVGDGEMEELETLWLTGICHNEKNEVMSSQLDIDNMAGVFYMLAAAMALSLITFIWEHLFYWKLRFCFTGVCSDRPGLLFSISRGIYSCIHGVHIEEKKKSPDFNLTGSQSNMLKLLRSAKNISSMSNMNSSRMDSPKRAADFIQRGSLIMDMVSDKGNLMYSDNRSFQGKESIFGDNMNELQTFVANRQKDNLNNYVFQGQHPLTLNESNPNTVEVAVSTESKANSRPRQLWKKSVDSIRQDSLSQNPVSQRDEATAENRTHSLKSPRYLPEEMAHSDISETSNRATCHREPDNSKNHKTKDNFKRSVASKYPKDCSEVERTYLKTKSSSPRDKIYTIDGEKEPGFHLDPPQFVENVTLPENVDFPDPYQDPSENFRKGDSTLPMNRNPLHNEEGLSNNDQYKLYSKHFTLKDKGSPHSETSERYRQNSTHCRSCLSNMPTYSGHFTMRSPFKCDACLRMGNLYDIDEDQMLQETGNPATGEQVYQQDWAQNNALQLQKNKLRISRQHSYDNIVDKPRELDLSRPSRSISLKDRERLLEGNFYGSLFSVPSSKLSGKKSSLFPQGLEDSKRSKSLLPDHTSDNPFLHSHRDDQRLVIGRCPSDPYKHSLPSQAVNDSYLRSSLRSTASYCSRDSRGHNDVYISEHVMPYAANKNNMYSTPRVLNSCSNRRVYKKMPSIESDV
compound,measurement,setting,value
"O=C(NC(=S)N1CCCCC1c1cccnc1)c1ccc(F)cc1 (centres unmarked) [CNS4, 4‐fluoro‐N‐(2‐(pyridin‐3‐yl)piperidine‐1‐carbonothioyl)benzamide]","current response, agonist alone induced maximum current normalized to 100%",[1]; [5],negligible effect
same,"current response, agonist alone induced maximum current normalized to 100%",[1]; [6],186.08% ± 23.5%
same,"current response, agonist alone induced maximum current normalized to 100%",[1]; [7],122.87% ± 9.9%
same,calcium signals compared to CNS4 alone treated cells,[2]; 100 µM CNS4 + 10 µM or higher concentrations of NMDA,significantly increased calcium signals
same,"Ca^2+ signal, mean rfu","[2]; 100 µM CNS4 + 100 µM GABA, p < .001 vs GABA alone (4196)",5124 rfu
same,"Ca^2+ signal, mean rfu","[2]; 100 µM CNS4 + 100 µM acetylcholine, p < .0001 vs acetylcholine alone (6222)",8082 rfu
same,"Ca^2+ signal, mean rfu","[2]; 100 µM CNS4 + 100 µM glutamate + 50 µM MK801, p = .7757 vs glutamate + MK801 (7997)",8359 rfu
same,Ca^2+ signal compared to background,"[2]; 100 µM CNS4 in the presence of 0.3, 1, 3 µM NMDA",did not increase Ca^2+ signal
same,Ca^2+ signal without NMDA,"[2]; 100 µM CNS4 in vehicle (HBSS) with no NMDA, Figure 6A",no significant Ca^2+ signal
same,more Ca^2+ signal compared to plain 300 µM NMDA,[2]; 100 µM CNS4 plus 300 µM NMDA,43%
same,"Ca^2+ signal, mean rfu","[2]; 100 µM CNS4 plus 300 µM NMDA, p < .0001 vs 300 µM NMDA alone (26711)",38274 rfu
same,"current response, agonist alone induced maximum current normalized to 100%",[3]; [5],264.37% ± 16.9%
same,"current response, agonist alone induced maximum current normalized to 100%",[3]; [6],122.65% ± 1.9%
same,"current response, agonist alone induced maximum current normalized to 100%",[3]; [7],144.47% ± 11.8%
same,deactivation time constant tau (τ),"[4]; 100 µM CNS4 + Ag (100 µM glutamate + 100 µM glycine), n = 19, Ag alone 710.9 ± 98.27 ms, n = 9, p < .05",1067 ± 104.3 ms
same,effect on maximum inducible current,"[4]; 100 µM CNS4 co‐applied with agonist, 0.3 µM glutamate + 100 µM glycine",significantly potentiated
same,effect on peak current amplitude,"[4]; 100 µM CNS4 co‐applied with agonist, 100 µM glutamate + 100 µM glycine",significantly inhibited

# From paper PMC8413904 (Pharmacology Research & Perspectives, 2021)
